# Laboratory results: PubChem BioAssay AID602214 (Southern Research Specialized Biocontainment Screening …, 2012)
# Calls of active or inactive are those of the source.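 How the source made its calls: active means inhibition of 30% or more at any tested concentration; inactive means the rest.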
# Molecular target: Cytosol aminopeptidase (Homo sapiens) (UniProt P28838)
# Test: human M17LAP inhibitors, dose response, counter-screen for PfM17LAP inhibitor project, biochemical, QFRET fluorogenic substrate (AID 602214)
# Conditions: purified recombinant human M17LAP, H-Leu-NHMec fluorescence
# Chain of Cytosol aminopeptidase (Homo sapiens) (P28838 whole entry, looked up): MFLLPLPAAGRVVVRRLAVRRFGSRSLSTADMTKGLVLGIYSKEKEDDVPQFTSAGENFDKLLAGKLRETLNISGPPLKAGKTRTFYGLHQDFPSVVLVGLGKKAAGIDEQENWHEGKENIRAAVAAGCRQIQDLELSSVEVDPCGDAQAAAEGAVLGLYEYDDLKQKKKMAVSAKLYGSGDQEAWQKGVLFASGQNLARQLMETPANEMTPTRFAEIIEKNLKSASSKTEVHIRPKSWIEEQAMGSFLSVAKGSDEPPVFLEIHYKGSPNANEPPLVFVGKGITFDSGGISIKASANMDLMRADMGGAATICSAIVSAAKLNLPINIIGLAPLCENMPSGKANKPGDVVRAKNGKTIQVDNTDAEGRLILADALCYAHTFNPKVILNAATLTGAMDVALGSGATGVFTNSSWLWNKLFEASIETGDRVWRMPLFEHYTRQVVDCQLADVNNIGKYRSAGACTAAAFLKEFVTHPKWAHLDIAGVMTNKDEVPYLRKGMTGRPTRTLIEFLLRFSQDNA
Structure (SMILES),IC50,inhibition (at 100 µM (top of the series)),also measured
COC(=O)c1c(NC(=O)C2CC=CCC2C(=O)O)sc(C)c1-c1ccc(C)cc1 (centres undefined),85700 nM,–,–
COC(=O)Cc1ccc(OCC(C)C)cc1,–,inactive,–
CCCCOc1ccc(CC(=O)N(C)O)cc1,–,–,inhibition (at 50 µM (top of the series)): inactive
CCOc1ccc(CC(=O)NO)cc1,1110 nM,–,–
CC(C)COc1ccc(CC(=O)NO)cc1,210 nM,–,–
COC(=O)c1ccccc1NC(=O)c1cc2cc3ccc(C)cc3nc2s1,–,–,inhibition (at 50 µM (top of the series)): inactive
COc1ccc(CCCC(=O)NO)cc1,4580 nM,–,–
COc1ccc(OCCC(=O)NO)cc1,44200 nM,–,–
O=C(Cc1ccc2c(c1)CCCC2)NO,280 nM,–,–
CCCCCCCCCC(=O)NO,8230 nM,–,–
CC1=C(C)CC(C(=O)Nc2nc(-c3cc(C)ccc3C)c(C)s2)C(C(=O)O)C1 (centres undefined),–,inactive,–
CC(C)C[C@H](N)C(=O)NO,–,inactive,–
CCC(C)Oc1ccc(CC(=O)OC)cc1 (centres undefined),–,inactive,–
CCC(C)(C)C1CCc2c(sc(NC(=O)C3CC(C)=C(C)CC3C(=O)O)c2C(=O)OC)C1 (centres undefined),–,inactive,–
O=C(CSc1nccc(=O)[nH]1)Nc1ccc(Oc2ccccc2)cc1,–,–,inhibition (at 50 µM (top of the series)): inactive
O=C1OCCC1Sc1nnc(NC2CCCCC2)s1 (centres undefined),–,–,inhibition (at 50 µM (top of the series)): inactive
CCCCc1ccc(CC(=O)NO)cc1,350 nM,–,–
CCCCOc1ccc(CNc2c(N(C)O)c(=O)c2=O)cc1,–,–,inhibition (at 25 µM (top of the series)): inactive
COc1ccc(-c2nnc(NC(=O)C3CC(C)=C(C)CC3C(=O)O)s2)cc1 (centres undefined),–,inactive,–
COC(=O)c1ccccc1NC(=O)c1ccc2c(Cl)c3c(nc2c1)CCC3,–,–,inhibition (at 50 µM (top of the series)): inactive
COC(=O)c1cc(OC)c(OC)cc1NC(=O)c1sc2nc(C)ccc2c1N,–,inactive,–
CCCOc1ccc(CC(=O)OC)cc1,–,inactive,–
CCCCOc1ccc(CC(=O)NO)cc1,310 nM,–,–
NC(N)=NCCC[C@H](N)C(=O)NO,–,inactive,–
COC(=O)Cc1ccc(OCCN(C)C)cc1,–,inactive,–
CCCCOc1ccc(CC(=O)O)cc1,–,inactive,–
CCCCOc1ccc(CCC(=O)NO)cc1,16200 nM,–,–
CCCCOc1ccc(C(=O)NO)cc1,8670 nM,–,–

# Continued, in another order:
IC50,inhibition (at 100 µM (top of the series)),Structure (SMILES),also measured
31900 nM,–,O=C(NO)c1cccc2ccccc12,–
–,inactive,CC1=C(C)CC(C(=O)Nc2ccc(Oc3ccc(Cl)cc3)cc2)C(C(=O)O)C1 (centres undefined),–
990 nM,–,O=C(Cc1cccc2ccccc12)NO,–
–,inactive,O=C(CSc1ccccc1)Nc1cccc2c1C(=O)NC2=O,–
290 nM,–,O=C(Cc1ccc2ccccc2c1)NO,–
–,inactive,CN(O)C(=O)Cc1ccc(OCc2ccccc2)cc1,–
–,inactive,COC(=O)c1c(NC(=O)c2ccccc2C(=O)O)sc2c1CCCC2,–
–,inactive,O=C(Nc1ccc(Cl)cc1)Nc1ccccc1C(=O)O,–
520 nM,–,O=C(Cc1ccc(Oc2ccccc2)cc1)NO,–
–,inactive,CC1CCc2sc(C(=O)Nc3cccc4c3C(=O)NC4)cc2C1 (centres undefined),–
–,inactive,CCCCOc1ccc(CNc2c(N(O)Cc3ccccc3)c(=O)c2=O)cc1,–
–,inactive,Cc1cc(=O)[nH]c(SCC(=O)Nc2ccccc2)n1,–
1640 nM,–,COc1ccc(CC(=O)NO)cc1,–
–,inactive,COC(=O)c1c(NC(=O)C2CCCCC2C(=O)O)sc2c1CCC(c1ccccc1)C2 (centres undefined),–
–,inactive,O=C(CSc1nccc(=O)[nH]1)Nc1ccc(N2CCOCC2)cc1,–
1820 nM,–,Cc1ccc(CC(=O)NO)cc1,–
–,inactive,COc1cc(NC(=O)CSc2ccccc2)c(C(=O)O)cc1OC,–
–,inactive,COc1cc(NC(=O)c2ccc(-c3ccccc3)cc2)c(C(=O)O)cc1OC,–
–,inactive,O=C(CSc1nc(O)cc(=O)[nH]1)Nc1ccccc1,–
–,inactive,O=C(O)c1ccccc1C(=O)Nc1nc2c(s1)CCCC2,–
–,inactive,Cc1cc(SCC(=O)Nc2ccccc2C(=O)O)nc2ccccc12,–
–,inactive,N[C@@H](Cc1c[nH]c2ccccc12)C(=O)NO,–
1180 nM,–,O=C(Cc1ccc(OCc2ccccc2)cc1)NO,–
–,inactive,CCn1c2ccccc2c2cc(NC(=O)CSc3nc(C)cc(=O)[nH]3)ccc21,–
–,inactive,Cc1ccc(NC(=O)CSc2nc(O)cc(=O)n2Cc2ccccc2)cc1,–
–,inactive,CC(C)(C(=O)NO)c1ccccc1,–
